US20130017537A1, “METHOD OF IN-VITRO IMMUNOASSAY” (BASF Beauty Care Solutions France S.A.S., priority 2011, published 2013)
Values joined by “and” are separate entries in the source; they are usually repeats but may differ in a detail not shown here. Equal values may be shown once.

Legend:
[1] = system: extracellular procollagen; experiment: Procollagen ELISA (PIPc kit) on collected culture medium; format: cell-based, human
Protocol: The method described in example 1 was applied and the culture medium and lysis medium collected were analysed. On the collected culture medium, a procollagen assay was carried out (PIPc kit, TAKARA) by ELISA for determining the amount of extracellular procollagen (Table 4.1) The amounts of collagen and procollagen measured were rationalized to the amount of DNA present in each well. In experiment 6, procollagen was assayed in the culture medium collected in step b) in accordance with the method described in example 4.

collagen I = experiment: Immunohistochemical analysis of collagen I (confocal fluorescence); format: cell-based, human; conditions: 50 μM; 72 h
Protocol: After 72 h culture postconfluency, the culture medium was removed and immunolabelling was performed. The polyclonal anti-collagen I primary antibody was applied, then after removal of the medium the secondary antibody conjugated to a fluorochrome alexa 488 is added. The fluorescence was examined under the LSM700 confocal microscope.

normal human fibroblasts = experiment: Double-stranded DNA assay in the cell lysate (bisbenzimide, Picogreen) for quantity of viable cells; format: cell-based; set-up: unit not given here
Protocol: The lysate was collected and analysed. The double-stranded DNA contained in the lysate was assayed by using the bisbenzimide method (Picogreen Kit, Invitrogen). On the collected lysis medium, a procollagen assay (PIPc kit, TAKARA) by ELISA is carried out for determining the amount of intracellular procollagen (Table 4.2). A DNA assay (Picogreen kit, Invitrogen) was also carried out for rationalizing all of the measurements in each well to the quantity of viable cells.

[2] = system: type V collagen in the ECM; experiment: Assay of type V collagen in the ECM (anticollagen V antibody, europium TRF, Delfia) after NH4OH lysis of fibroblasts; format: cell-based, human; conditions: for Coll V (RFU) Mean: 48 hours, donor; for Versus control Mean (Coll V): control = 100.00
Protocol: A lysis step was carried out: 110 μl of an ammonium hydroxide solution at 20 mM for 10 minutes at room temperature and with stirring. The collagen V in the ECM was assayed directly on the ECM by using an anticollagen V antibody. A secondary antibody conjugated to europium was used with a detection reagent and the fluorescence was measured. (Delfia® kit—Perkin Elmer). The experiment was carried out according to the protocol described in example 1 with fibroblasts extracted from a biopsy from a donor.

[3] = system: type I collagen in the ECM; experiment: Assay of type I collagen in the ECM (anticollagen I antibody, europium TRF, Delfia) after NH4OH lysis of fibroblasts; format: cell-based, human; set-up: key to Coll I Mean: europium fluorescence normalized to measured dsDNA; conditions: for Coll I (RFU) Mean: 48 hours, donor; for Versus control Mean (Coll I): control = 100.00; for Coll I Mean / Ratio: Coll I/DNA Mean / Stat Mean (Coll I/DNA, control = 100.00): ECM
Protocol: After 48 hours of culture postconfluency, the culture medium was removed and discarded. A lysis step was carried out: 110 μl of an ammonium hydroxide solution at 20 mM for 10 minutes at room temperature and with stirring. The lysate was collected and analysed. The double-stranded DNA contained in the lysate was assayed by using the bisbenzimide method (Picogreen Kit, Invitrogen). The collagen in the ECM was assayed directly on the ECM by using an anticollagen I antibody. A secondary antibody conjugated to europium was used with a detection reagent and the fluorescence was measured. (Delfia® kit—Perkin Elmer). The fluorescence results were rationalized relative to the measured dsDNA rate. The experiment was carried out according to the protocol described in example 1 with fibroblasts extracted from a biopsy from a donor. […] The experiment was carried out according to the protocol described in example 1 with fibroblasts extracted from a biopsy of a donor.

[4] = ascorbic acid 0.1 μM, Example 4
[5] = ascorbic acid 100 μM, Example 4
[6] = ascorbic acid 100 μM, Example 5

O=C1O[C@H]([C@@H](O)CO)C(O)=C1O [Ascorbic acid, ascorbic acid]
Procoll (ng/ml) Mean ([1]; 50 μM, Example 7): 1983 ng/mL | Ratio: Procoll/DNA Mean ([1]; 50 μM, Example 7): 4.01 | Versus control Mean (ProColl/DNA) ([1]; 50 μM, Example 7, control = 100): 171.17 | Procoll Mean (extracellular procollagen) ([1]; ascorbic acid 0.1 μM): 1987 ng/mL | Ratio: Procoll/DNA Mean ([1]; ascorbic acid 0.1 μM): 6.26 | Stat Mean (Procoll/DNA, control = 100.00) ([1]; ascorbic acid 0.1 μM): 100.75 | Procoll Mean (extracellular procollagen) ([1]; ascorbic acid 1 μM): 1983 ng/mL | Ratio: Procoll/DNA Mean ([1]; ascorbic acid 1 μM): 6.57 | Stat Mean (Procoll/DNA, control = 100.00) ([1]; ascorbic acid 1 μM): 105.74 | Procoll Mean (extracellular procollagen) ([1]; ascorbic acid 10 μM): 2756 ng/mL | Ratio: Procoll/DNA Mean ([1]; ascorbic acid 10 μM): 9.83 | Stat Mean (Procoll/DNA, control = 100.00) ([1]; ascorbic acid 10 μM): 158.16 | Procoll Mean (extracellular procollagen) ([1]; ascorbic acid 50 μM): 2852 ng/mL | Ratio: Procoll/DNA Mean ([1]; ascorbic acid 50 μM): 10.25 | Stat Mean (Procoll/DNA, control = 100.00) ([1]; ascorbic acid 50 μM): 164.89 | Procoll Mean (extracellular procollagen) ([1]; ascorbic acid 100 μM): 2845 ng/mL | Ratio: Procoll/DNA Mean ([1]; ascorbic acid 100 μM): 9.78 | Stat Mean (Procoll/DNA, control = 100.00) ([1]; ascorbic acid 100 μM): 157.30 | Area/cells % (control = 100) (collagen I): 114.96% | Area/cells Mean (collagen I fluorescence) (collagen I): 124238.13 | DNA Mean (normal human fibroblasts; 50 μM, Example 6 and 7): 497.4 and 497.3 | DNA Mean (normal human fibroblasts; [4]): 318 | DNA Mean (normal human fibroblasts; ascorbic acid 1 μM, Example 4): 303 | DNA Mean (normal human fibroblasts; ascorbic acid 5 μM, Table 5.3): 220 | DNA Mean (normal human fibroblasts; ascorbic acid 5 μM, Table 5.4): 212 | DNA Mean (normal human fibroblasts; ascorbic acid 10 μM, Example 4): 281 | DNA Mean (normal human fibroblasts; ascorbic acid 10 μM, Table 5.3): 249 | DNA Mean (normal human fibroblasts; ascorbic acid 10 μM, Table 5.4): 241 | DNA Mean (normal human fibroblasts; ascorbic acid 25 μM, Table 5.3): 232 | DNA Mean (normal human fibroblasts; ascorbic acid 25 μM, Table 5.4): 236 | DNA Mean (normal human fibroblasts; ascorbic acid 50 μM, Example 4): 279 | DNA Mean (normal human fibroblasts; ascorbic acid 50 μM, Table 5.3): 180 | DNA Mean (normal human fibroblasts; ascorbic acid 50 μM, Table 5.4): 236 | DNA Mean (normal human fibroblasts; [5]): 291 | DNA Mean (normal human fibroblasts; ascorbic acid 100 μM, Table 5.3): 204 | DNA Mean (normal human fibroblasts; ascorbic acid 100 μM, Table 5.4): 246 | Ratio: Coll/DNA Mean (Coll V) ([2]; ascorbic acid 5 μM): 59.83 | Coll V (RFU) Mean ([2]; ascorbic acid 5 μM): 12644 RFU | Versus control Mean (Coll V) ([2]; ascorbic acid 5 μM): 117.16 | Ratio: Coll/DNA Mean (Coll V) ([2]; ascorbic acid 10 μM): 58.76 | Coll V (RFU) Mean ([2]; ascorbic acid 10 μM): 14127 RFU | Versus control Mean (Coll V) ([2]; ascorbic acid 10 μM): 115.06 | Ratio: Coll/DNA Mean (Coll V) ([2]; ascorbic acid 25 μM): 68.69 | Coll V (RFU) Mean ([2]; ascorbic acid 25 μM): 16172 RFU | Versus control Mean (Coll V) ([2]; ascorbic acid 25 μM): 134.49 | Ratio: Coll/DNA Mean (Coll V) ([2]; ascorbic acid 50 μM): 68.86 | Coll V (RFU) Mean ([2]; ascorbic acid 50 μM): 16230 RFU | Versus control Mean (Coll V) ([2]; ascorbic acid 50 μM): 134.82 | Ratio: Coll/DNA Mean (Coll V) ([2]; ascorbic acid 100 μM): 73.12 | Coll V (RFU) Mean ([2]; ascorbic acid 100 μM): 17994 RFU | Versus control Mean (Coll V) ([2]; ascorbic acid 100 μM): 143.17 | Coll I (RFU) Mean ([3]; 50 μM, Example 6): 169132 RFU | Ratio: Coll/DNA Mean (Coll I) ([3]; 50 μM, Example 6): 340.49 | Versus control Mean (Coll I) ([3]; 50 μM, Example 6): 119.53 | effect of stimulation on the content of collagen I in the ECM (dose dependence) ([3]; Example 4, 0.1 to 100 μM): dose-dependent up to 50 μM | optimum dose for efficacy, collagen I assay ([3]; Example 5, 5 to 100 μM tested): 50 µM | stimulation of the synthesis of collagen I and V ([3]; Example 5, collagen I and V in the ECM): induces stimulation of the synthesis of collagen I and V with a significant dose effect | amount of collagen I in the ECM ([3]; Example 6, ascorbic acid at 50 μM, vegetable extract 1% (v/v)): significant increase | Coll I Mean [3, 4]: 74156 | Ratio: Coll I/DNA Mean [3, 4]: 233.65 | Stat Mean (Coll I/DNA, control = 100.00) [3, 4]: 105.33 | Coll I Mean ([3]; ascorbic acid 1 μM, Example 4): 74419 | Ratio: Coll I/DNA Mean ([3]; ascorbic acid 1 μM, Example 4): 246.46 | Stat Mean (Coll I/DNA, control = 100.00) ([3]; ascorbic acid 1 μM, Example 4): 111.10 | Coll I (RFU) Mean ([3]; ascorbic acid 5 μM, Example 5): 59802 RFU | Ratio: Coll/DNA Mean (Coll I) ([3]; ascorbic acid 5 μM, Example 5): 273.40 | Versus control Mean (Coll I) ([3]; ascorbic acid 5 μM, Example 5): 125.69 | Coll I (RFU) Mean ([3]; ascorbic acid 10 μM, Example 5): 59569 RFU | Coll I Mean ([3]; ascorbic acid 10 μM, Example 4): 78694 | Ratio: Coll I/DNA Mean ([3]; ascorbic acid 10 μM, Example 4): 280.82 | Stat Mean (Coll I/DNA, control = 100.00) ([3]; ascorbic acid 10 μM, Example 4): 126.59 | Ratio: Coll/DNA Mean (Coll I) ([3]; ascorbic acid 10 μM, Example 5): 239.53 | Versus control Mean (Coll I) ([3]; ascorbic acid 10 μM, Example 5): 110.12 | Coll I (RFU) Mean ([3]; ascorbic acid 25 μM, Example 5): 59088 RFU | Ratio: Coll/DNA Mean (Coll I) ([3]; ascorbic acid 25 μM, Example 5): 254.84 | Versus control Mean (Coll I) ([3]; ascorbic acid 25 μM, Example 5): 117.16 | Coll I (RFU) Mean ([3]; ascorbic acid 50 μM, Example 5): 54454 RFU | Coll I Mean ([3]; ascorbic acid 50 μM, Example 4): 79146 | Ratio: Coll I/DNA Mean ([3]; ascorbic acid 50 μM, Example 4): 284.31 | Stat Mean (Coll I/DNA, control = 100.00) ([3]; ascorbic acid 50 μM, Example 4): 128.17 | Ratio: Coll/DNA Mean (Coll I) ([3]; ascorbic acid 50 μM, Example 5): 309.87 | Versus control Mean (Coll I) ([3]; ascorbic acid 50 μM, Example 5): 130.66 | Coll I (RFU) Mean [3, 6]: 50765 RFU | Coll I Mean [3, 5]: 79796 | Ratio: Coll I/DNA Mean [3, 5]: 273.96 | Stat Mean (Coll I/DNA, control = 100.00) [3, 5]: 123.50 | Ratio: Coll/DNA Mean (Coll I) [3, 6]: 249.31 | Versus control Mean (Coll I) [3, 6]: 114.62
